Tested on: cellular protein O-GlcNAcylation in STZ-induced diabetic hearts
Test: Cellular protein O-GlcNAcylation in diabetic mouse hearts by Western blot
Type: in vivo
Conditions: STZ-induced diabetic mice, insulin 50 units/g per day subcutaneously for 2 weeks
Text: To rule out any potentially toxic effects of STZ on the heart, several STZ-injected mice were intensively treated with Ultralente human insulin (Eli Lilly and Company, IN) with 50 units/g per day subcutaneously. The insulin treatment commenced on the third day after STZ injection and lasted for 2 weeks. The cellular O-GlcNAcylation in these hearts was compared with that of the non-insulin treated diabetic hearts. In addition, several 20 weeks old male polygenic diabetic NONcNZO10/LtJ mice (The Jackson Laboratory) (see, e.g., Reifsnyder (2002) Diabetes 51:825-832; Leiter (2004) Diabetes 53 Suppl 1:S4-11) were used as a type II diabetic model to investigate the excess O-GlcNAcyaltion level in the diabetic heart independent of STZ administration. These mice developed hyperglycemia at 12-16 weeks. At the sacrifice time, blood glucose levels were above 33.3 mmol/L. Animal procedures were performed in accordance with the guidelines established by the Committee on Animal Research at the University of California, San Diego. […]
Twenty μg of protein was mixed with Laemmli sample buffer at room temperature for 10 min (samples for anti-O-GlcNAc antibody detection was heated at 70° C. for 10 min) and then loaded onto 4-10% gradient Tris/glycine gels. […] Films were scanned and analyzed by IMAGE-J™ software (NIH).

insulin: Ultralente human insulin (Eli Lilly and Company)
excess O-GlcNAcylation of cellular protein in diabetic hearts: prevented

— US7919475B2, “Compositions and methods for improving heart function” (The Regents of The University of California, priority 2004, dated 2011)
